Assay results reported in US20200323212A1, “PEST CONTROL COMPOSITION AND USE OF SAME” (SUMITOMO CHEMICAL COMPANY, LIMITED, priority 2017, published 2020).

System: ticks
Experiment: Vial contact test, tick mortality after 48 hours (Test Examples 11, 14, 15)
Format: in vivo
Experimental: The Colby's calculation equation is shown as Equation 1 below.
E=X+Y−X×Y/100 (Equation 1)
Zero point two (0.2) mL of the solution was dropped to a 20 mL volume of vial, and the inner wall of the vial was coated homogeneously with the chemicals, and air-dried. Thereafter, ten ticks were released in the vial, and the vials were sealed with a lid. After 48 hours, the number of died ticks were examined, and the mortality (%) was calculated by the following equation 2. The three repetitions of each application dose were conducted.
Mortality (%)=(Number of dead pests/Number of supplied pests)×100 (Equation 2)
Zero point two (0.2) mL of the solution was dropped to a 20 mL volume of a vial, and the inner wall of the vial was coated homogeneously with the chemicals, and air-dried. Thereafter, ten ticks were released in the vial, and the vials were sealed with a lid. After 48 hours, the number of died ticks were examined, and the mortality (%) was calculated by the following equation 5. The three repetitions of each application dose were conducted.
Mortality (%)=(Number of dead pests/Number of supplied pests)×100 (Equation 5)
Zero point two (0.2) mL of the solution was dropped to a 20 mL volume of a vial, and the inner wall of the vial was coated homogeneously with the chemicals, and air-dried. Thereafter, ten ticks were released in the vial, and the vials were sealed with a lid. After 48 hours, the number of died ticks were examined, and the mortality (%) was calculated by the following equation 6. The three repetitions of each application dose were conducted.
Mortality (%)=(Number of dead pests/Number of supplied pests)×100 (Equation 6)

Compound	Mortality (Measured value) (N,N-diethyl-m-toluamide alone 10 mg/m^2)	Mortality (Measured value) (N,N-diethyl-m-toluamide alone 20 mg/m^2)	Mortality (Measured value) (sec-butyl=2-(2-hydroxyethyl)piperidine-1-carboxylate alone 10 mg/m^2)
CCN(CC)C(=O)c1cccc(C)c1 [N,N-diethyl-m-toluamide]	40%	50%	–
CCC(C)OC(=O)N1CCCCC1CCO (stereo not drawn) [sec-butyl=2-(2-hydroxyethyl)piperidine-1-carboxylate]	–	–	70%
